Test results: patent US8846569B2, “Pesticidal bis-organosulfur compounds” (Merial Limited, priority 2009, dated 2014)

What was measured:
Assay type in all cases: in vivo
Plutella xylostella = test: Diamond back moth (Plutella xylostella) stomach poison leaf dip test; conditions: for activity in [%]: 10 ppm, scale 0% no biological activity to 100% total control
Procedure: The test solution is prepared at the day of use.
Leaves of Chinese cabbage are dipped in test solution and air-dried. Treated leaves are placed in petri dished lined with moist filter paper. Mortality is recorded 24, 72, and 120 hours after treatment.
The biological tests were conducted as described above.

Myzus persicae = test: Green peach aphid (Myzus persicae) artificial diet test; conditions: 72 h, 2500 ppm, adult aphids on treated artificial diet, 3 days, read-out: mortality in comparison with untreated controls
Excerpt: For evaluating control of green peach aphid (Myzus persicae) the test unit consisted of 96-well-microtiter plates containing liquid artificial diet under an artificial membrane.
The compounds were formulated using a solution containing 75% v/v water and 25% v/v DMSO. Different concentrations of formulated compounds were pipetted into the aphid diet, using a custom built pipetter, at two replications.
After application, 5-8 adult aphids were placed on the artificial membrane inside the microtiter plate wells. The aphids were then allowed to suck on the treated aphid diet and incubated at about 23±1° C. and about 50±5% relative humidity for 3 days. Aphid mortality and fecundity was then visually assessed.

Ceratitis capitata = test: Mediterranean fruitfly (Ceratitis capitata) diet/egg test; conditions: 120 h, 2500 ppm, egg and larval mortality, 5 days, read-out: mortality in comparison with untreated controls
Procedure: For evaluating control of Mediterranean fruitfly (Ceratitis capitata) the test unit consisted of microtiter plates containing an insect diet and 50-80 C. capitata eggs.
The compounds were formulated using a solution containing 75% v/v water and 25% v/v DMSO. Different concentrations of formulated compounds were sprayed onto the insect diet at 5 nl, using a custom built micro atomizer, at two replications.
(§1) After application, microtiter plates were incubated at about 28±1° C. and about 80±5% relative humidity for 5 days. Egg and larval mortality was then visually assessed.

Aedes aegypti = Aedes aegypti neonate larvae motility assay; conditions: larval motility, dose response
Procedure: Compounds formulated in 100% DMSO are tested in microtiter plates containing 180 ul 1× Luria Broth media and 10 neonate A. aegypti larvae. The efficacy of a compound is determined based on the motility of the larvae as compared to average motility of control wells containing DMSO only. A dose response assay is conducted with compounds with >80% reduction in motility in the primary assay to determine an EC50 value. Selected compounds are advanced to insecticide secondary assays.

Anthonomus grandis = test: Boll weevil (Anthonomus grandis) diet/egg test; conditions: 120 h, 2500 ppm, egg and larval mortality, 5 days, read-out: mortality in comparison with untreated controls
Procedure: For evaluating control of boll weevil (Anthonomus grandis) the test unit consisted of 24-well-microtiter plates containing an insect diet and 20-30 A. grandis eggs.
The compounds were formulated using a solution containing 75% v/v water and 25% v/v DMSO. Different concentrations of formulated compounds were sprayed onto the insect diet at 20 μl, using a custom built micro atomizer, at two replications.
After application, microtiter plates were incubated at about 23±1° C. and about 50±5% relative humidity for 5 days. Egg and larval mortality was then visually assessed.

Megoura viciae = test: Vetch aphid (Megoura viciae) leaf disk test; conditions: foliar, 120 h, 2500 ppm, adult aphids on sprayed broad bean leaf disks, 5 days, read-out: mortality in comparison with untreated controls
Procedure: For evaluating control of vetch aphid (Megoura viciae) through contact or systemic means the test unit consisted of 24-well-microtiter plates containing broad bean leaf disks.
The compounds were formulated using a solution containing 75% v/v water and 25% v/v DMSO. Different concentrations of formulated compounds were sprayed onto the leaf disks at 2.5 μl, using a custom built micro atomizer, at two replications.
After application, the leaf disks were air-dried and 5-8 adult aphids placed on the leaf disks inside the microtiter plate wells. The aphids were then allowed to suck on the treated leaf disks and incubated at about 23±1° C. and about 50±5% relative humidity for 5 days. Aphid mortality and fecundity was then visually assessed.

Heliothis virescens = test: Tobacco budworm (Heliothis virescens) diet/egg test
Procedure: For evaluating control of tobacco budworm (Heliothis virescens) the test unit consisted of 96-well-microtiter plates containing an insect diet and 15-25 H. virescens eggs.
The compounds were formulated using a solution containing 75% v/v water and 25% v/v DMSO. Different concentrations of formulated compounds were sprayed onto the insect diet at 10 μl, using a custom built micro atomizer, at two replications.
as §1
The biological activity shown tables under CB.1 and CB.2 was evaluated on scale range from 0% as showing no biological activity to 100% as having total control. The biological tests were conducted as described above.

| Structure (SMILES) | activity in [%] (Plutella xylostella) | mortality at 2500 ppm (Myzus persicae) [%] | mortality at 2500 ppm (Ceratitis capitata) [%] | EC50 (Aedes aegypti) [mg/L] | mortality at 500 ppm (Plutella xylostella; Plutella xylostella, foliar, 500 ppm, dipped Chinese cabbage leaves, stomach poison, read-out: mortality in comparison with untreated controls) [%] | mortality at 2500 ppm (Anthonomus grandis) [%] | mortality at 2500 ppm (Megoura viciae) [%] | activity in [%] (Heliothis virescens; 800 ppm, scale 0% no biological activity to 100% total control) | mortality at 2500 ppm (Heliothis virescens; Heliothis virescens, 120 h, 2500 ppm, egg and larval mortality, 5 days, read-out: mortality in comparison with untreated controls) [%] |
| --- | --- | --- | --- | --- | --- | --- | --- | --- | --- |
| CC(C#N)(CCC(F)(F)F)S(=O)(=O)CCC(F)(F)C(F)(F)F (stereo not shown) [CE. 2, reference compound] | 0 |  |  |  |  |  |  |  |  |
| N#CC(CCSC(F)(F)F)S(=O)(=O)CCC(F)(F)C(F)(F)F (stereo not shown) [II-1, 2-(3,3,4,4,4-Pentafluoro-butane-1-sulfonyl)-4-trifluoromethylsulfanyl-butyronitrile] |  | > 90 | > 90 | < 5 | > 90 | > 90 | > 90 | 100 | > 90 |
| CC(C#N)(CCSC(F)(F)F)S(=O)(=O)CCC(F)(F)C(F)(F)F (stereo not shown) [II-2, 2-Methyl-2-(3,3,4,4,4-pentafluoro-butane-1-sulfonyl)-4-trifluoromethyl-sulfanyl-butyronitrile] | 100 |  |  |  |  |  |  |  |  |
